Where two headings read alike, the source gives them in different places.
Legend:
[1] = system: primary human T-cells
[2] = system: primary human T-cells; experiment: Proliferation assay after 5 days (CellTiter-Glo, CD3 stimulation; PBS counter screen); format: cell-based; settings: Homo sapiens, T-cell, 120 h, CD3 stimulation; for Emax: 5 days, normalized to reference compound A1 as stimulator control = 100%, DMSO neutral control, read-out: Emax proliferation (% activation); for EC50: primary human T-cells, CellTiter-Glo after 5 days, EC50 of fitted sigmoidal curve, read-out: Tcell Proliferation CD3 EC50
How it was run: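 Cpds added to medium-only plates; 5 d culture. Readout CellTiter-Glo 2.0 (equal vol), RT 45 min equilibration, 15 min rocking RT, luminescence. ATP signal taken as cell number.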

SMILES	EC50 [1]	Emax [2]	EC50 [2]
N#CC1(c2nnc(-c3cc4c(cc3F)S(=O)(=O)C[C@H](N)C(=O)N4Cc3ccc(Cl)cc3)o2)CC1 [Example 118, 1-[5-[(3R)-3-amino-5-[(4-chlorophenyl)methyl]-8-fluoro-1,1,4-trioxo-2,3-dihydro-1λ^6,5-benzothiazepin-7-yl]-1,3,4-oxadiazol-2-yl]cyclopropanecarbonitrile]	228 nM	99%	669 nM
CC(C)(O)c1nnc(-c2cc3c(cc2F)S(=O)(=O)C[C@H](N)C(=O)N3Cc2ccc(Cl)cc2)o1 [Example 119, (3R)-3-amino-5-[(4-chlorophenyl)methyl]-8-fluoro-7-[5-(1-hydroxy-1-methyl-ethyl)-1,3,4-oxadiazol-2-yl]-1,1-dioxo-2,3-dihydro-1λ^6,5-benzothiazepin-4-one]	1210 nM	97%	730 nM
COC(=O)N1CC2(c3nnc(-c4cc5c(cc4F)S(=O)(=O)C[C@H](N)C(=O)N5Cc4ccc(Cl)cc4)o3)CC1CO2 (stereo partly drawn) [Example 120, methyl 1-[5-[(3R)-3-amino-5-[(4-chlorophenyl)methyl]-8-fluoro-1,1,4-trioxo-2,3-dihydro-1λ^6,5-benzothiazepin-7-yl]-1,3,4-oxadiazol-2-yl]-2-oxa-5-azabicyclo[2.2.1]heptane-5-carboxylate]	256 nM	96%	129 nM
N[C@H]1CS(=O)(=O)c2cc(F)c(-c3nnc(C45CNCCC4C5)o3)cc2N(Cc2ccc(Cl)cc2)C1=O (stereo partly drawn) [Example 121, (3R)-3-amino-7-[5-(3-azabicyclo[4.1.0]heptan-1-yl)-1,3,4-oxadiazol-2-yl]-5-[(4-chlorophenyl)methyl]-8-fluoro-1,1-dioxo-2,3-dihydro-1λ^6,5-benzothiazepin-4-one]	6370 nM	72%	4760 nM
CC(C)(C)c1nnc(-c2ccc3c(c2)N(Cc2ccc(S(=O)(=O)C(F)(F)F)cc2)C(=O)[C@@H](N)CS3(=O)=O)o1 [Example 123, (3R)-3-amino-7-(5-tert-butyl-1,3,4-oxadiazol-2-yl)-1,1-dioxo-5-[[4-(trifluoromethylsulfonyl)phenyl]methyl]-2,3-dihydro-1λ^6,5-benzothiazepin-4-one]	1650 nM	82%	> 2730 nM
CN(C)C(=O)C(C)(C)c1nnc(-c2cc3c(cc2F)S(=O)(=O)C[C@H](N)C(=O)N3Cc2ccc(Cl)cc2)o1 [Example 125, N,N,2-trimethyl-2-[5-[(3R)-3-amino-5-[(4-chlorophenyl)methyl]-8-fluoro-1,1,4-trioxo-2,3-dihydro-1λ^6,5-benzothiazepin-7-yl]-1,3,4-oxadiazol-2-yl]propanamide]	1440 nM	112%	587 nM
N[C@H]1CS(=O)(=O)c2cc(F)c(-c3nnc(C4(C(F)(F)F)CC4)o3)cc2N(Cc2ccc(Cl)cc2)C1=O [Example 126, (3R)-3-amino-5-[(4-chlorophenyl)methyl]-8-fluoro-1,1-dioxo-7-[5-[1-(trifluoromethyl)cyclopropyl]-1,3,4-oxadiazol-2-yl]-2,3-dihydro-1λ^6,5-benzothiazepin-4-one]	62.4 nM	135%	113 nM
CC(N)(c1nnc(-c2cc3c(cc2F)S(=O)(=O)C[C@H](N)C(=O)N3Cc2ccc(Cl)cc2)o1)C(F)(F)F (stereo partly drawn) [Example 127, (3R)-3-amino-7-[5-(1-amino-2,2,2-trifluoro-1-methyl-ethyl)-1,3,4-oxadiazol-2-yl]-5-[(4-chlorophenyl)methyl]-8-fluoro-1,1-dioxo-2,3-dihydro-1λ^6,5-benzothiazepin-4-one]	232 nM	110%	181 nM
CC(C)(c1nnc(-c2cc3c(cc2F)S(=O)(=O)C[C@H](N)C(=O)N3Cc2ccc(Cl)cc2)o1)N1CCCC1 [Example 128, (3R)-3-amino-5-[(4-chlorophenyl)methyl]-8-fluoro-7-[5-(1-methyl-1-pyrrolidin-1-yl-ethyl)-1,3,4-oxadiazol-2-yl]-1,1-dioxo-2,3-dihydro-1λ^6,5-benzothiazepin-4-one]	1240 nM	99%	534 nM
Cc1ccc(-c2nnc(-c3cc4c(cc3F)S(=O)(=O)C[C@H](N)C(=O)N4Cc3ccc(Cl)cc3)o2)nc1 [Example 129, (3R)-3-amino-5-[(4-chlorophenyl)methyl]-8-fluoro-7-[5-(5-methyl-2-pyridyl)-1,3,4-oxadiazol-2-yl]-1,1-dioxo-2,3-dihydro-1λ^6,5-benzothiazepin-4-one]	1900 nM	106%	1420 nM
Cc1cc(C)c(-c2nnc(-c3cc4c(cc3F)S(=O)(=O)C[C@H](N)C(=O)N4Cc3ccc(Cl)cc3)o2)cn1 [Example 130, (3R)-3-amino-5-[(4-chlorophenyl)methyl]-7-[5-(4,6-dimethyl-3-pyridyl)-1,3,4-oxadiazol-2-yl]-8-fluoro-1,1-dioxo-2,3-dihydro-1λ^6,5-benzothiazepin-4-one]	284 nM	114%	159 nM
Cc1nc(F)ccc1-c1nnc(-c2cc3c(cc2F)S(=O)(=O)C[C@H](N)C(=O)N3Cc2ccc(Cl)cc2)o1 [Example 131, (3R)-3-amino-5-[(4-chlorophenyl)methyl]-8-fluoro-7-[5-(6-fluoro-2-methyl-3-pyridyl)-1,3,4-oxadiazol-2-yl]-1,1-dioxo-2,3-dihydro-1λ^6,5-benzothiazepin-4-one]	376 nM	192%	347 nM
COC(=O)N1CCC(OC)(c2nnc(-c3cc4c(cc3F)S(=O)(=O)C[C@H](N)C(=O)N4Cc3ccc(Cl)cc3)o2)CC1 [Example 132, methyl 4-methoxy-4-[5-[(3R)-3-amino-5-[(4-chlorophenyl)methyl]-8-fluoro-1,1,4-trioxo-2,3-dihydro-1λ^6,5-benzothiazepin-7-yl]-1,3,4-oxadiazol-2-yl]-piperidine-1-carboxylate]	1950 nM	97%	150 nM
Cc1ccc(-c2nnc(-c3cc4c(cc3F)S(=O)(=O)C[C@H](N)C(=O)N4Cc3ccc(Cl)cc3)o2)cn1 [Example 133, (3R)-3-amino-5-[(4-chlorophenyl)methyl]-8-fluoro-7-[5-(6-methyl-3-pyridyl)-1,3,4-oxadiazol-2-yl]-1,1-dioxo-2,3-dihydro-1λ^6,5-benzothiazepin-4-one]	1190 nM	144%	324 nM
N[C@H]1CS(=O)(=O)c2cc(F)c(-c3nnc(-c4ccc(F)nc4)o3)cc2N(Cc2ccc(Cl)cc2)C1=O [Example 134, (3R)-3-amino-5-[(4-chlorophenyl)methyl]-8-fluoro-7-[5-(6-fluoro-3-pyridyl)-1,3,4-oxadiazol-2-yl]-1,1-dioxo-2,3-dihydro-1λ^6,5-benzothiazepin-4-one]	1360 nM	34%	> 10000 nM
N[C@H]1CS(=O)(=O)c2cc(F)c(-c3nnc(-c4ccc(F)cn4)o3)cc2N(Cc2ccc(Cl)cc2)C1=O [Example 135, (3R)-3-amino-5-[(4-chlorophenyl)methyl]-8-fluoro-7-[5-(5-fluoro-2-pyridyl)-1,3,4-oxadiazol-2-yl]-1,1-dioxo-2,3-dihydro-1λ^6,5-benzothiazepin-4-one]	2900 nM	93%	1050 nM
CC(C)(c1nnc(-c2cc3c(cc2F)S(=O)(=O)C[C@H](N)C(=O)N3Cc2ccc(Cl)cc2)o1)C(N)C(F)(F)F (stereo partly drawn) [Example 136, (3R)-3-amino-7-[5-(2-amino-3,3,3-trifluoro-1,1-dimethyl-propyl)-1,3,4-oxadiazol-2-yl]-5-[(4-chlorophenyl)methyl]-8-fluoro-1,1-dioxo-2,3-dihydro-1λ^6,5-benzothiazepin-4-one]	187 nM	99%	114 nM
COC(=O)NC(C(F)(F)F)C(C)(C)c1nnc(-c2cc3c(cc2F)S(=O)(=O)C[C@H](N)C(=O)N3Cc2ccc(Cl)cc2)o1 (stereo partly drawn) [Example 137, methyl N-[2-methyl-2-[5-[(3R)-3-amino-5-[(4-chlorophenyl)methyl]-8-fluoro-1,1,4-trioxo-2,3-dihydro-1λ^6,5-benzothiazepin-7-yl]-1,3,4-oxadiazol-2-yl]-1-(trifluoromethyl)propyl]carbamate]	487 nM	90%	309 nM
CC(C)(CN1CCS(=O)(=O)CC1)c1nnc(-c2cc3c(cc2F)S(=O)(=O)C[C@H](N)C(=O)N3Cc2ccc(Cl)cc2)o1 [Example 138, (3R)-3-amino-5-[(4-chlorophenyl)methyl]-7-[5-[2-(1,1-dioxo-1,4-thiazinan-4-yl)-1,1-dimethyl-ethyl]-1,3,4-oxadiazol-2-yl]-8-fluoro-1,1-dioxo-2,3-dihydro-1λ^6,5-benzothiazepin-4-one]	3470 nM	120%	1510 nM
CN(CCO)CC(C)(C)c1nnc(-c2cc3c(cc2F)S(=O)(=O)C[C@H](N)C(=O)N3Cc2ccc(Cl)cc2)o1 [Example 139, (3R)-3-amino-5-[(4-chlorophenyl)methyl]-8-fluoro-7-[5-[2-[2-hydroxyethyl(methyl)amino]-1,1-dimethyl-ethyl]-1,3,4-oxadiazol-2-yl]-1,1-dioxo-2,3-dihydro-1λ^6,5-benzothiazepin-4-one]	4000 nM	102%	3400 nM
CN(C)CCC(C)(C)c1nnc(-c2cc3c(cc2F)S(=O)(=O)C[C@H](N)C(=O)N3Cc2ccc(Cl)cc2)o1 [Example 140, (3R)-3-amino-5-[(4-chlorophenyl)methyl]-7-[5-[3-(dimethylamino)-1,1-dimethyl-propyl]-1,3,4-oxadiazol-2-yl]-8-fluoro-1,1-dioxo-2,3-dihydro-1λ^6,5-benzothiazepin-4-one]	3880 nM	70%	5350 nM

— patent US20240368150A1 (Hoffmann-La Roche Inc., priority 2021, published 2024)
